Molecules are shown by their SMILES.

One data set deals with Human immunodeficiency virus 1. Nature of the data set: Antiviral activity against wild type HIV-1 strain 3B infected in human MT4 cells assessed as reduction in virus-induced cytopathogenicity by MTT assay. The class given is functional, organism-based. Particulars: Human immunodeficiency virus 1, 3B. (In general: Damage to the host cells serves as the signal in cytopathic effect assays.)
With `Brc1cccc(Oc2ccnc(NC3CCN(Cc4n[nH]c5ccccc45)CC3)n2)c1`, the EC50 came out at 250 nM.

With `Cc1cc(Oc2ccnc(NC3CCN(Cc4n[nH]c5ccccc45)CC3)n2)cc(C)c1Cl`, the EC50 was 370 nM.

On to `N#Cc1ccc(Oc2ccnc(NC3CCN(Cc4n[nH]c5ccccc45)CC3)n2)cc1`, for which the EC50 is 78 nM.

Consider `FC(F)(F)c1cccc(Oc2ccnc(NC3CCN(Cc4n[nH]c5ccccc45)CC3)n2)c1`, for which the EC50 was 550 nM.

Take `Brc1ccccc1Oc1ccnc(NC2CCN(Cc3n[nH]c4ccccc34)CC2)n1`: the EC50 was 31 nM.

Consider `FC(F)(F)c1ccc(Oc2ccnc(NC3CCN(Cc4n[nH]c5ccccc45)CC3)n2)cc1`, for which the EC50 came to 470 nM.

For the compound `O=C1Nc2ccc(Cl)cc2[C@@](C#CC2CC2)(C(F)(F)F)O1` [EFAVIRENZ], the concentration giving a half-maximal response (EC50) was 2.6 nM.

`Nc1ccn([C@@H]2CS[C@H](CO)O2)c(=O)n1` [LAMIVUDINE]: the EC50 came out at 18 nM.

For `Cc1ccnc2c1NC(=O)c1cccnc1N2C1CC1` [NEVIRAPINE], the EC50 is 3.2 nM.

Another data set concerns Human immunodeficiency virus 1. Nature of the data set: Antiviral activity against HIV-1 K103N mutant strain infected in human MT4 cells assessed as reduction in virus-induced cytopathogenicity by MTT assay. The class given is functional, organism-based. Particulars: Human immunodeficiency virus 1, MT4.
Turning to `Brc1cccc(Oc2ccnc(NC3CCN(Cc4n[nH]c5ccccc45)CC3)n2)c1`, the EC50 worked out at 4900 nM.

With `Cc1cc(Oc2ccnc(NC3CCN(Cc4n[nH]c5ccccc45)CC3)n2)cc(C)c1Cl`, the EC50 was found to be 8200 nM.

With `N#Cc1ccc(Oc2ccnc(NC3CCN(Cc4n[nH]c5ccccc45)CC3)n2)cc1`, the EC50 is 2600 nM.

As to `FC(F)(F)c1cccc(Oc2ccnc(NC3CCN(Cc4n[nH]c5ccccc45)CC3)n2)c1`, the EC50 was determined as 8900 nM.

Regarding `Brc1ccccc1Oc1ccnc(NC2CCN(Cc3n[nH]c4ccccc34)CC2)n1`, the EC50 was found to be 1900 nM.

With `FC(F)(F)c1ccc(Oc2ccnc(NC3CCN(Cc4n[nH]c5ccccc45)CC3)n2)cc1`, the EC50 came to 10000 nM.

For `O=C1Nc2ccc(Cl)cc2[C@@](C#CC2CC2)(C(F)(F)F)O1` [EFAVIRENZ], the EC50 was 76 nM.

Consider `Nc1ccn([C@@H]2CS[C@H](CO)O2)c(=O)n1` [LAMIVUDINE], for which the EC50 was 19 nM.

Turning to `Cc1ccnc2c1NC(=O)c1cccnc1N2C1CC1` [NEVIRAPINE], the EC50 came out at 3.2 nM.

The next data set concerns Human immunodeficiency virus 1. Description: Antiviral activity against HIV-1 Y181C mutant strain infected in human MT4 cells assessed as reduction in virus-induced cytopathogenicity by MTT assay. The class given is functional, organism-based. Particulars: Human immunodeficiency virus 1, MT4.
Turning to `Brc1cccc(Oc2ccnc(NC3CCN(Cc4n[nH]c5ccccc45)CC3)n2)c1`, the EC50 worked out at 6100 nM.

With `Cc1cc(Oc2ccnc(NC3CCN(Cc4n[nH]c5ccccc45)CC3)n2)cc(C)c1Cl`, the EC50 turned out to be 8700 nM.

`N#Cc1ccc(Oc2ccnc(NC3CCN(Cc4n[nH]c5ccccc45)CC3)n2)cc1`: the 50% effective concentration (EC50) worked out at 3130 nM.

For the compound `FC(F)(F)c1cccc(Oc2ccnc(NC3CCN(Cc4n[nH]c5ccccc45)CC3)n2)c1`, the concentration giving a half-maximal response (EC50) is 9700 nM.

Turning to `Brc1ccccc1Oc1ccnc(NC2CCN(Cc3n[nH]c4ccccc34)CC2)n1`, the EC50 came to 1000 nM.

On to `FC(F)(F)c1ccc(Oc2ccnc(NC3CCN(Cc4n[nH]c5ccccc45)CC3)n2)cc1`, for which the EC50 is over 29000 nM.

In the case of `Nc1ccn([C@@H]2CS[C@H](CO)O2)c(=O)n1` [LAMIVUDINE], the EC50 worked out at 12 nM.

Take `Cc1ccnc2c1NC(=O)c1cccnc1N2C1CC1` [NEVIRAPINE]: the EC50 turned out to be 14 nM.

For another data set, the system named is Human immunodeficiency virus 1. Description: Antiviral activity against HIV-1 E138K mutant strain infected in human MT4 cells assessed as reduction in virus-induced cytopathogenicity by MTT assay. The class given is functional, organism-based. Particulars: Human immunodeficiency virus 1, MT4.
Take `Brc1cccc(Oc2ccnc(NC3CCN(Cc4n[nH]c5ccccc45)CC3)n2)c1`: the EC50 came to 3500 nM.

Regarding `Cc1cc(Oc2ccnc(NC3CCN(Cc4n[nH]c5ccccc45)CC3)n2)cc(C)c1Cl`, the EC50 turned out to be 4700 nM.

`N#Cc1ccc(Oc2ccnc(NC3CCN(Cc4n[nH]c5ccccc45)CC3)n2)cc1`: the EC50 is 1400 nM.

Regarding `FC(F)(F)c1cccc(Oc2ccnc(NC3CCN(Cc4n[nH]c5ccccc45)CC3)n2)c1`, the EC50 came out at 7000 nM.

With `Brc1ccccc1Oc1ccnc(NC2CCN(Cc3n[nH]c4ccccc34)CC2)n1`, the EC50 turned out to be 480 nM.

As for `FC(F)(F)c1ccc(Oc2ccnc(NC3CCN(Cc4n[nH]c5ccccc45)CC3)n2)cc1`, the EC50 amounted to 4800 nM.

As for `O=C1Nc2ccc(Cl)cc2[C@@](C#CC2CC2)(C(F)(F)F)O1` [EFAVIRENZ], the EC50 was determined as 4.4 nM.

With `Nc1ccn([C@@H]2CS[C@H](CO)O2)c(=O)n1` [LAMIVUDINE], the EC50 amounted to 19 nM.

Regarding `Cc1ccnc2c1NC(=O)c1cccnc1N2C1CC1` [NEVIRAPINE], the EC50 amounted to 6.7 nM.

With `Cc1cn([C@H]2C[C@H](N=[N+]=[N-])[C@@H](CO)O2)c(=O)[nH]c1=O` [ZIDOVUDINE], the EC50 was determined as 160 nM.

The subject of another data set is Human immunodeficiency virus 1. Nature of the data set: Antiviral activity against HIV-1 RES056 mutant strain infected in human MT4 cells assessed as reduction in virus-induced cytopathogenicity by MTT assay. The class given is functional, organism-based. Particulars: Human immunodeficiency virus 1, MT4.
As to `Brc1cccc(Oc2ccnc(NC3CCN(Cc4n[nH]c5ccccc45)CC3)n2)c1`, the EC50 is over 22000 nM.

Regarding `Cc1cc(Oc2ccnc(NC3CCN(Cc4n[nH]c5ccccc45)CC3)n2)cc(C)c1Cl`, the EC50 is over 15000 nM.

Consider `N#Cc1ccc(Oc2ccnc(NC3CCN(Cc4n[nH]c5ccccc45)CC3)n2)cc1`, for which the EC50 is over 31000 nM.

For `FC(F)(F)c1cccc(Oc2ccnc(NC3CCN(Cc4n[nH]c5ccccc45)CC3)n2)c1`, the EC50 was over 22000 nM.

For the compound `Brc1ccccc1Oc1ccnc(NC2CCN(Cc3n[nH]c4ccccc34)CC2)n1`, the EC50 is over 5300 nM.

For the compound `FC(F)(F)c1ccc(Oc2ccnc(NC3CCN(Cc4n[nH]c5ccccc45)CC3)n2)cc1`, the EC50 was over 29000 nM.

Turning to `O=C1Nc2ccc(Cl)cc2[C@@](C#CC2CC2)(C(F)(F)F)O1` [EFAVIRENZ], the EC50 was 240 nM.

`Nc1ccn([C@@H]2CS[C@H](CO)O2)c(=O)n1` [LAMIVUDINE]: the concentration for a half-maximal effect (EC50) came out at 28 nM.

For `Cc1ccnc2c1NC(=O)c1cccnc1N2C1CC1` [NEVIRAPINE], the EC50 came out at 34 nM.

Test system in another data set: not listed separately
Nature of the data set: Cytotoxicity against human MT4 cells assessed as inhibition of cell viability by measuring reduction in absorbance at OD540 by MTT assay. It is filed as cell-based.
Settings: not given
On the technique in general: Tetrazolium dyes change colour on reduction, which living cells bring about.
Turning to `Brc1cccc(Oc2ccnc(NC3CCN(Cc4n[nH]c5ccccc45)CC3)n2)c1`, the CC50 was determined as 22000 nM.

As for `Cc1cc(Oc2ccnc(NC3CCN(Cc4n[nH]c5ccccc45)CC3)n2)cc(C)c1Cl`, the CC50 amounted to 15000 nM.

Regarding `N#Cc1ccc(Oc2ccnc(NC3CCN(Cc4n[nH]c5ccccc45)CC3)n2)cc1`, the CC50 was found to be 31000 nM.

`FC(F)(F)c1cccc(Oc2ccnc(NC3CCN(Cc4n[nH]c5ccccc45)CC3)n2)c1`: the CC50 stood at 22000 nM.

With `Brc1ccccc1Oc1ccnc(NC2CCN(Cc3n[nH]c4ccccc34)CC2)n1`, the CC50 was determined as 5300 nM.

Consider `FC(F)(F)c1ccc(Oc2ccnc(NC3CCN(Cc4n[nH]c5ccccc45)CC3)n2)cc1`, for which the CC50 was determined as 29000 nM.

Take `O=C1Nc2ccc(Cl)cc2[C@@](C#CC2CC2)(C(F)(F)F)O1` [EFAVIRENZ]: the CC50 is over 6300 nM.

In the case of `Cc1cc(C#N)cc(C)c1Oc1nc(Nc2ccc(C#N)cc2)nc(N)c1Br` [ETRAVIRINE], the CC50 is over 87000 nM.

As for `Nc1ccn([C@@H]2CS[C@H](CO)O2)c(=O)n1` [LAMIVUDINE], the CC50 was over 7500 nM.

Take `Cc1ccnc2c1NC(=O)c1cccnc1N2C1CC1` [NEVIRAPINE]: the CC50 is over 4600 nM.

Consider `Cc1cn([C@H]2C[C@H](N=[N+]=[N-])[C@@H](CO)O2)c(=O)[nH]c1=O` [ZIDOVUDINE], for which the CC50 was over 15000 nM.

Test system in the next data set: not listed separately
Description: Selectivity index, ratio of CC50 for cytotoxicity against human MT4 cells reduction in cell viability by MTT assay to EC50 for antiviral activity against wild type HIV-1 strain IIIB infected in human MT4 cells assessed as reduction in virus-induced cytopathogenicity by MTT assay. The class given is toxicity, cell-based. Particulars: read-out: Selectivity Index.
For the compound `Brc1cccc(Oc2ccnc(NC3CCN(Cc4n[nH]c5ccccc45)CC3)n2)c1`, the selectivity ratio was determined as 88.

`Cc1cc(Oc2ccnc(NC3CCN(Cc4n[nH]c5ccccc45)CC3)n2)cc(C)c1Cl`: the selectivity ratio was determined as 41.

As to `N#Cc1ccc(Oc2ccnc(NC3CCN(Cc4n[nH]c5ccccc45)CC3)n2)cc1`, the selectivity ratio turned out to be 397.

Consider `FC(F)(F)c1cccc(Oc2ccnc(NC3CCN(Cc4n[nH]c5ccccc45)CC3)n2)c1`, for which the selectivity ratio stood at 40.

`Brc1ccccc1Oc1ccnc(NC2CCN(Cc3n[nH]c4ccccc34)CC2)n1`: the selectivity ratio is 171.

With `FC(F)(F)c1ccc(Oc2ccnc(NC3CCN(Cc4n[nH]c5ccccc45)CC3)n2)cc1`, the selectivity ratio came out at 62.

In the case of `O=C1Nc2ccc(Cl)cc2[C@@](C#CC2CC2)(C(F)(F)F)O1` [EFAVIRENZ], the selectivity ratio is over 2420.

For `Cc1cc(C#N)cc(C)c1Oc1nc(Nc2ccc(C#N)cc2)nc(N)c1Br` [ETRAVIRINE], the selectivity ratio was over 28.

With `Nc1ccn([C@@H]2CS[C@H](CO)O2)c(=O)n1` [LAMIVUDINE], the selectivity ratio is over 417.

As to `Cc1ccnc2c1NC(=O)c1cccnc1N2C1CC1` [NEVIRAPINE], the selectivity ratio was over 1440.

With `Cc1cn([C@H]2C[C@H](N=[N+]=[N-])[C@@H](CO)O2)c(=O)[nH]c1=O` [ZIDOVUDINE], the selectivity ratio is over 100.

Another data set deals with Human immunodeficiency virus 2. Description: Antiviral activity against HIV-2 ROD strain infected in human MT4 cells assessed as reduction in virus-induced cytopathogenicity by MTT assay. Particulars: Human immunodeficiency virus 2, ISOLATE ROD.
Take `Brc1cccc(Oc2ccnc(NC3CCN(Cc4n[nH]c5ccccc45)CC3)n2)c1`: the EC50 was over 22000 nM.

Turning to `Cc1cc(Oc2ccnc(NC3CCN(Cc4n[nH]c5ccccc45)CC3)n2)cc(C)c1Cl`, the EC50 was over 15000 nM.

For `N#Cc1ccc(Oc2ccnc(NC3CCN(Cc4n[nH]c5ccccc45)CC3)n2)cc1`, the EC50 was over 31000 nM.

Regarding `FC(F)(F)c1cccc(Oc2ccnc(NC3CCN(Cc4n[nH]c5ccccc45)CC3)n2)c1`, the EC50 was over 22000 nM.

For `Brc1ccccc1Oc1ccnc(NC2CCN(Cc3n[nH]c4ccccc34)CC2)n1`, the EC50 is over 5300 nM.

With `FC(F)(F)c1ccc(Oc2ccnc(NC3CCN(Cc4n[nH]c5ccccc45)CC3)n2)cc1`, the EC50 was over 29000 nM.

Take `Nc1ccn([C@@H]2CS[C@H](CO)O2)c(=O)n1` [LAMIVUDINE]: the EC50 is 21 nM.

In general, EC50 refers to the concentration giving half of the maximal effect. Usually CC50 stands for the concentration at which the toxic effect on the cells reaches its halfway point.

These data come from ChEMBL document CHEMBL4680126, “Indazolyl-substituted piperidin-4-yl-aminopyrimidines as HIV-1 NNRTIs: Design, synthesis and biological activities” (Eur J Med Chem, 2020).
